In publication PMC6155437 (Molecules : A Journal of Synthetic Chemistry and Natural …, 2017):

Legend:
Assay type in all cases: in vitro ADME
Conditions in all cases: at 50 µM
CYP2A6 = target: T1, CYP2A6 (Homo sapiens, UniProt P11509); assay: CYP2A6 coumarin 7-hydroxylase inhibition in pooled human liver microsomes (substrate cocktail, LC-MS/MS)
T1 construct: pooled human liver microsomes (0.2 mg/mL); tissue Corning Life Sciences; host or cells: pooled human liver microsomes (150 donors)
T1 sequence (P11509 1-494): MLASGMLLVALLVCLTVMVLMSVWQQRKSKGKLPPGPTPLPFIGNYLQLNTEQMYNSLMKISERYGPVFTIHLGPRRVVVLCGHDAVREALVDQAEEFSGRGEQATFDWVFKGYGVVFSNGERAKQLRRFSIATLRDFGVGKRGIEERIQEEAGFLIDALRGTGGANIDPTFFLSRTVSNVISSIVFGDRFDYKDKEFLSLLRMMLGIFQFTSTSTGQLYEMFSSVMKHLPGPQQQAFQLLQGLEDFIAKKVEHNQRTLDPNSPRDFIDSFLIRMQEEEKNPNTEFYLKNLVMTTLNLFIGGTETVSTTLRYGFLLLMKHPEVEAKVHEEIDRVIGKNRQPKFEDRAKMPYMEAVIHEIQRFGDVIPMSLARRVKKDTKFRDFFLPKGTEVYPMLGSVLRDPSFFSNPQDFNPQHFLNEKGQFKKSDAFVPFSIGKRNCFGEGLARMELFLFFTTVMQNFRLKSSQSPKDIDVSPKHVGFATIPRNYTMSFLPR
Procedure: After a 3-min pre-incubation at 37 °C, the reactions were initiated by addition of NADPH and incubation proceeded for 15 min at 37 °C in a shaking water bath. […] The incubation mixtures were centrifuged (13,000× g, 4 min, 4 °C). All assays were performed in triplicate and mean values were used in calculations.
Each reaction was initiated by adding the seven-CYP probe substrate cocktail.
(§1) The metabolites formed from CYP substrates were quantified simultaneously by a LC-MS/MS method described previously. The ESI source settings in positive-ion mode for metabolite ionization were: capillary voltage, 4200 V; vaporizer temperature, 350 °C; capillary temperature, 330 °C; sheath gas pressure, 35 psi; and auxiliary gas pressure, 15 psi. […] Analytical data were processed using Xcalibur software (version 2.1, Thermo Scientific).
(§2) The apparent kinetic parameters for inhibitory potential (Ki and kinact values) and inhibition mode were estimated from the fitted curves using the Enzyme Kinetics program (ver. 1.1; Systat Software Inc., San Jose, CA, USA).

UGT1A4 = target: T2, UGT1A4 (Homo sapiens, UniProt P22310); assay: UGT1A4 trifluoperazine N-glucuronidation inhibition in human liver microsomes
T2 construct: pooled human liver microsomes (0.2 mg/mL), 5 mM UDPGA; tissue Corning Life Sciences; host or cells: pooled human liver microsomes (150 donors)
T2 sequence (P22310 29-534): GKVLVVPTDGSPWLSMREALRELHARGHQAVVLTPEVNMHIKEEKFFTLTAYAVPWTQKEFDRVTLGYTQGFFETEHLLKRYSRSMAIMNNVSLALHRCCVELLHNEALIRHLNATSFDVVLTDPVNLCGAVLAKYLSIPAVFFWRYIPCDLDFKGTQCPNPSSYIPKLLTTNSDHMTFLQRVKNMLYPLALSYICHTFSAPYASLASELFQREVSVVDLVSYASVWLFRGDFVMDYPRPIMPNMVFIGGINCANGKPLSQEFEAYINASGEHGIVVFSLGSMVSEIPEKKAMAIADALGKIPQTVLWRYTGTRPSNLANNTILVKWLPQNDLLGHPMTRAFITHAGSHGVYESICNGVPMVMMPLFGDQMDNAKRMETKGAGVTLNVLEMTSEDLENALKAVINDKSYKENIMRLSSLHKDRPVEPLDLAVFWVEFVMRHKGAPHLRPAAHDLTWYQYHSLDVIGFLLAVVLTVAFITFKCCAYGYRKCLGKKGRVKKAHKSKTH
Procedure: (§3) After 3 min of pre-incubation at 37 °C, the reactions were initiated by addition of UDPGA; incubation continued for 60 min at 37 °C in a shaking water bath. The reaction was stopped by placing the tubes on ice and adding 50 µL ice-cold acetonitrile containing internal standards (propofol glucuronide for chenodeoxycholic acid 24-acyl-β-glucuronide and mycophenolic acid glucuronide, and meloxicam for SN-38 glucuronide, trifluoperazine glucuronide, N-acetylserotonin β-D-glucuronide, and naloxone 3-β-D-glucuronide). The incubation mixtures were centrifuged (13,000× g, 4 min, 4 °C). All assays were performed in triplicate and average values were used in calculations.
(§4) The metabolites formed from the six UGT cocktail substrates were measured simultaneously using the LC-MS/MS method. The ESI source settings in both positive- and negative-ion modes for metabolite ionization were: capillary voltage, 4200 V; vaporizer temperature, 350 °C; capillary temperature, 330 °C; sheath gas pressure, 35 psi; and auxiliary gas pressure, 15 psi. […] Data were processed using Xcalibur software.
as §2

UGT1A9 = target: T3, UGT1A9 (Homo sapiens, UniProt O60656); assay: UGT1A9 mycophenolic acid glucuronidation inhibition in human liver microsomes
T3 construct: pooled human liver microsomes (0.2 mg/mL), 5 mM UDPGA; tissue Corning Life Sciences; host or cells: pooled human liver microsomes (150 donors)
T3 sequence (O60656 26-530): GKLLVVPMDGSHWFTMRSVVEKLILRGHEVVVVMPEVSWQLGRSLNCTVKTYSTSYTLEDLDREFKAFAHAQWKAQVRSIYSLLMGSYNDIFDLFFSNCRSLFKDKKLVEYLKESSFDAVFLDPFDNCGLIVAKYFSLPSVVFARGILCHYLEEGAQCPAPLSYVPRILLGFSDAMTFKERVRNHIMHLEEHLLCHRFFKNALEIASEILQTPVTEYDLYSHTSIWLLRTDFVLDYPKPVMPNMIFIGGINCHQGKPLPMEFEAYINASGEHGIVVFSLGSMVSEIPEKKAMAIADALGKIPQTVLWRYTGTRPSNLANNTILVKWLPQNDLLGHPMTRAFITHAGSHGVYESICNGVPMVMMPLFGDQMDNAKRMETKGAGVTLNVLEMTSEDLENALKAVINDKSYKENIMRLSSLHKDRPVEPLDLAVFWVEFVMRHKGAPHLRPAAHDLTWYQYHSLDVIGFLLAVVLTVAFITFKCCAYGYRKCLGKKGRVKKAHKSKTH
Procedure: as §3, §4, §2

CYP2B6 = target: T4, CYP2B6 (Homo sapiens, UniProt P20813); assay: CYP2B6 bupropion hydroxylase inhibition in ultrapool human liver microsomes
T4 construct: pooled human liver microsomes (0.2 mg/mL); tissue Corning Life Sciences; host or cells: pooled human liver microsomes (150 donors)
T4 sequence (P20813 1-491): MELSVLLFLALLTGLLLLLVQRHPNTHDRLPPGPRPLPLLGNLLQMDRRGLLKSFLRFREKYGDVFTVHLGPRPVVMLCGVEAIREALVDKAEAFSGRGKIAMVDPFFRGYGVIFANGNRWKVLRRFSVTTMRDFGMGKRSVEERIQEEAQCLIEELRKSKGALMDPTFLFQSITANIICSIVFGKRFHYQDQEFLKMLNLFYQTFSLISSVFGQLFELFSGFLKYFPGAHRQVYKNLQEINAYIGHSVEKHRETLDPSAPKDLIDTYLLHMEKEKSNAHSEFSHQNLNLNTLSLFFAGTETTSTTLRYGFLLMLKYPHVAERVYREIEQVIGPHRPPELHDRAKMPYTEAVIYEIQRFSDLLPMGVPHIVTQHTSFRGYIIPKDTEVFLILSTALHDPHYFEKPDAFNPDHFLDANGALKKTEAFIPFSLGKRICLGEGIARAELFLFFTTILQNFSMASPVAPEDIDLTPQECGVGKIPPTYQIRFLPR
Procedure: All incubations were performed in triplicate, and average values were used.
as §1, §2

O=C(c1cccc2ccccc12)c1cn(CCCCCF)c2ccccc12 [AM-2201, 1-(5-fluoropentyl-1H-indol-3-yl)-(naphthalene-1-yl)methanone]
negligibly inhibited: inhibition of CYP2A6-mediated coumarin 7-hydroxylation (CYP2A6) | inhibition of UGT1A4-catalyzed trifluoperazine N-glucuronidation (UGT1A4) | inhibition of UGT1A9-catalyzed mycophenolic acid glucuronidation (UGT1A9) | inhibition of CYP2B6-mediated bupropion hydroxylation (CYP2B6)
